Species: Rattus norvegicus
Experiment: Open TG-GATES - Regimen: Single
Type: toxicity, organism-based, Sprague-Dawley
Parameters: regimen Single, gender Male, age 6 weeks
Conditions: in vivo, po, 15 mg/kg, route gavage, dose level Low; for APTT / Bas / Eos / Fbg / Hb / Ht / Lym / MCH / MCHC / MCV / Mono / Neu / PT / Plat / RBC / Ret / WBC: tissue Blood; for KIDNEY_L / KIDNEY_R / KIDNEY_TOTAL: tissue Kidney; for LIVER: tissue Liver; for A/G / ALP / ALT / AST / BUN / CRE / Ca / Cl / DBIL / GLC / IP / K / LDH / Na / PL / RALB / TBIL / TC / TG / TP / gamma-GTP: tissue Plasma

## S=C=Nc1cccc2ccccc12 [1-NAPHTHYLISOTHIOCYANATE]
3 h
  TERMINAL_BW: 226 g
  APTT: 18.2 s
  Bas: 0.2%
  Eos: 0.8%
  Fbg: 233 mg/dL
  Hb: 13.7 g/dL
  Ht: 38.1%
  Lym: 75.2%
  MCH: 22 pg
  MCHC: 35.8%
  MCV: 61.5 fL
  Mono: 3%
  Neu: 20%
  PT: 11.7 s
  Plat: 119.1 x10_4/uL
  RBC: 622.2 x10_4/ul
  Ret: 8.4%
  WBC: 91.8 x10_2/uL
  KIDNEY_L: 1 g
  KIDNEY_R: 1 g
  KIDNEY_TOTAL: 2 g
  LIVER: 10.2 g
  A/G: 1.6
  ALP: 1037.2 IU/L
  ALT: 42.2 IU/L
  AST: 75 IU/L
  BUN: 10.6 mg/dL
  CRE: 0.4 mg/dL
  Ca: 10.8 mg/dL
  Cl: 103.8 meq/L
  DBIL: 0.1 mg/dL
  GLC: 220.4 mg/dL
  IP: 10 mg/dL
  K: 4.1 meq/L
  LDH: 199.8 IU/L
  Na: 142 meq/L
  PL: 159.4 mg/dL
  RALB: 3.4 g/dL
  TBIL: 0.1 mg/dL
  TC: 75.2 mg/dL
  TG: 135.2 mg/dL
  TP: 5.6 g/dL
  gamma-GTP: 0.8 IU/L
6 h
  TERMINAL_BW: 220 g
  APTT: 18.5 s
  Bas: 0%
  Eos: 0.8%
  Fbg: 243.4 mg/dL
  Hb: 13.8 g/dL
  Ht: 38.6%
  Lym: 75.2%
  MCH: 21.8 pg
  MCHC: 35.7%
  MCV: 60.9 fL
  Mono: 3.2%
  Neu: 19.8%
  PT: 11.8 s
  Plat: 120.7 x10_4/uL
  RBC: 634.6 x10_4/ul
  Ret: 7%
  WBC: 100.7 x10_2/uL
  KIDNEY_L: 1 g
  KIDNEY_R: 1 g
  KIDNEY_TOTAL: 1.9 g
  LIVER: 9.6 g
  A/G: 1.7
  ALP: 1074.4 IU/L
  ALT: 32.4 IU/L
  AST: 68.2 IU/L
  BUN: 8 mg/dL
  CRE: 0.4 mg/dL
  Ca: 10.5 mg/dL
  Cl: 103.8 meq/L
  DBIL: 0.1 mg/dL
  GLC: 235.8 mg/dL
  IP: 10 mg/dL
  K: 4.1 meq/L
  LDH: 196 IU/L
  Na: 141.6 meq/L
  PL: 140.2 mg/dL
  RALB: 3.5 g/dL
  TBIL: 0.1 mg/dL
  TC: 77 mg/dL
  TG: 61 mg/dL
  TP: 5.6 g/dL
  gamma-GTP: 1.2 IU/L
9 h
  TERMINAL_BW: 215.5 g
  APTT: 18 s
  Bas: 0.2%
  Eos: 0.8%
  Fbg: 237 mg/dL
  Hb: 13.6 g/dL
  Ht: 38.1%
  Lym: 74.8%
  MCH: 21.5 pg
  MCHC: 35.6%
  MCV: 60.5 fL
  Mono: 2.4%
  Neu: 20.8%
  PT: 12.1 s
  Plat: 122.9 x10_4/uL
  RBC: 631.6 x10_4/ul
  Ret: 7.1%
  WBC: 92.1 x10_2/uL
  KIDNEY_L: 1 g
  KIDNEY_R: 0.9 g
  KIDNEY_TOTAL: 1.9 g
  LIVER: 8.7 g
  A/G: 1.7
  ALP: 1018.2 IU/L
  ALT: 35.8 IU/L
  AST: 72 IU/L
  BUN: 10.4 mg/dL
  CRE: 0.4 mg/dL
  Ca: 10.4 mg/dL
  Cl: 104 meq/L
  DBIL: 0.092 mg/dL
  GLC: 223 mg/dL
  IP: 10.1 mg/dL
  K: 3.8 meq/L
  LDH: 157.4 IU/L
  Na: 142.2 meq/L
  PL: 134.2 mg/dL
  RALB: 3.6 g/dL
  TBIL: 0.1 mg/dL
  TC: 73.2 mg/dL
  TG: 34.8 mg/dL
  TP: 5.7 g/dL
  gamma-GTP: 1 IU/L
24 h
  TERMINAL_BW: 232.5 g
  APTT: 17.6 s
  Bas: 0.4%
  Eos: 0.8%
  Fbg: 217.8 mg/dL
  Hb: 13.9 g/dL
  Ht: 38.5%
  Lym: 80%
  MCH: 21.9 pg
  MCHC: 36%
  MCV: 60.8 fL
  Mono: 2%
  Neu: 16%
  PT: 11.9 s
  Plat: 122.9 x10_4/uL
  RBC: 633.6 x10_4/ul
  Ret: 6.5%
  WBC: 106 x10_2/uL
  KIDNEY_L: 1 g
  KIDNEY_R: 1 g
  KIDNEY_TOTAL: 2 g
  LIVER: 10.3 g
  A/G: 1.6
  ALP: 1064.4 IU/L
  ALT: 39.8 IU/L
  AST: 73.6 IU/L
  BUN: 15.6 mg/dL
  CRE: 0.4 mg/dL
  Ca: 10.6 mg/dL
  Cl: 103.8 meq/L
  DBIL: 0.068 mg/dL
  GLC: 198 mg/dL
  IP: 7.3 mg/dL
  K: 3.8 meq/L
  LDH: 209.4 IU/L
  Na: 141.6 meq/L
  PL: 131 mg/dL
  RALB: 3.4 g/dL
  TBIL: 0.1 mg/dL
  TC: 67.4 mg/dL
  TG: 84.2 mg/dL
  TP: 5.5 g/dL
  gamma-GTP: 1.6 IU/L
